The source of these data is patent US5948764A, “Methods for treatment of multiple sclerosis utilizing peptide analogues of human myelin basic protein” (Neurocrine Biosciences, Inc., priority 1997, dated 1999).

Where a SMILES comes first, the peptide text is derived from it. [ ]: non-standard residue; d: D form.

For series [1], the system named is EAE. The conditions noted are these: single 250 μg dose in CFA, pertussis toxin i.v. day 0 and 2. Here is the method:
Similarly, mice are injected with a single, 250 μg dose of MBP (87-99) or A97 in CFA containing 500 μg of heat killed Mycobacterium. Pertussis toxin (400 ng/mouse) is injected i.v. at day 0 and day 2. Mice are assessed for disease symptoms as described above.

The test system of series [2] is Murine MBP-specific T cell clones (AG.1H8). The series can be described thus: Proliferation of murine MBP-specific T cell clone AG.1H8. Format: cell-based. The conditions noted are these: 72 hr, [3H]-thymidine. Here is the method:
Murine MBP-specific T cell clones were also used as targets in proliferation assays. T cell clones (30,000 cells) were cultured for 72 hr in the presence of MBP 87-99, A97, or PLP 139-151 (myelin proteolipid protein), and irradiated, syngeneic spleen cells. For 18 hr prior to harvesting, [^3 H]-thymidine was added to each culture. Incorporated thymidine was determined.

Series [3] relates to IL-2 stimulated T cell line reactive to MBP 87-99. The series is described as follows: Cytokine production by MBP 87-99 reactive T cell line (ELISA). The conditions noted are these: 48 hr; 10 μM PLP 139-151, 3 μM A97 or 3 μM MBP 87-99. Format: cell-based, SJL. Here is the method:
Other suitable assays of antigen-specific T cell responses include induction of cytokine production, phosphorylation of the CD3 zeta chain, and induction of apoptosis. Briefly, for assaying cytokine production, an IL-2-stimulated T cell line, which is reactive to MBP […], is incubated with IL-2 and various MBP peptide analogues. Cytokine release is measured at 48 hr. Cytokines are measured by ELISA, or alternatively, RNA expression of cytokines may be measured by Northern blot, RNase probe protection or other standard hybridization methods. Cytokines to be assayed include IL-1 through IL-14, γ-IFN, TNF, and the like. Phosphorylation of the CD3 zeta chain is assayed in MBP 87-89-specific T cells. Briefly, cells are co-incubated with antigen-presenting cells, such as T-depleted splenocytes, which have been pulsed with MBP 87-99 or peptide analogue. Cells are then lysed, and the zeta chain is immunoprecipitated and electrophoresed on an SDS-PAGE gel. The […] may be detected with an antibody. In a third assay, apoptosis may be induced in an antigen-specific manner. For this assay, an MBP stimulated T cell line is incubated with IL-2 and various peptides. Cell loss is measured by flow cytometry or other standard method.
Cytokine production by an IL-2 stimulated T cell line, which is reactive to MBP 87-99, is measured in response to various peptides and peptide analogues. The activated T cell line is co-cultured for 48 hr with a 10-fold excess of irradiated (3000 Rads) SJL T cell-depleted spleen cells, 50 IU/ml human rIL-2 and 10 μM PLP 139-151, 3 μM A97, or 3 μM MBP 87-99. Cytokine release is measured by ELISA.

Series [4] concerns EAE. The conditions noted are these: rat, in vivo.
The test system of series [5] is lymph node cells from MBP 87-99 immunized rats. The series is described as follows: Antigen-specific lymph node cell proliferation, MBP 87-99 immunized rats. Format: cell-based, Lewis rats. The conditions noted are these: FIG. 3B, separate experiment. Here is the method:
Within the second assay, draining lymph node cells from Lewis rats or SJL mice injected with MBP (87-99) may be used. Preferably, this assay is used in combination with the proliferation assay using T cell lines. Briefly, Lewis rats or SJL mice are injected subcutaneously with MBP (87-99) peptide in complete Freund's adjuvant. Nine to ten days later, draining lymph node cells are isolated and single-cell suspensions are prepared. Lymph node cells are incubated with various concentrations of peptide analogues for three days in a humidified air chamber containing 6.5% CO2. After incubation, the cultures are pulsed with 1-2 μCi of [^3 H]-thymidine for 12-18 hours. Cultures are harvested on fiberglass filters and counted in a scintillation counter. Mean CPM and the standard error of the mean are calculated from data determined in triplicate cultures. […] Peptide analogues which are suitable for further screening will preferably, at concentrations of at least 10 μM, cause stimulation to a level of at least 25% of the native peptide.
Female Lewis rates, approximately six weeks old, are purchased from Harlan Sprague, Indianapolis, Ind. MBP peptides are dissolved in phosphate-buffered saline (PBS) and emulsified with an equal volume of complete Freund's adjuvant (Difco Laboratories, Inc., Detroit, Mich.) supplemented with 2 mg/ml of heat-killed Mycobacterium tuberculosis H37Ra in oil (Difco). […]

Another series relates to multiple sclerosis. The conditions noted are these: in vivo; cited from earlier work.

`CC[C@H](C)[C@H](NC(=O)[C@H](CC(N)=O)NC(=O)[C@H](CCCCN)NC(=O)[C@H](Cc1ccccc1)NC(=O)[C@H](Cc1ccccc1)NC(=O)[C@H](Cc1c[nH]cn1)NC(=O)[C@@H](NC(=O)[C@@H](N)C(C)C)C(C)C)C(=O)N[C@H](C(=O)N[C@H](C(=O)N1CCC[C@H]1C(=O)N[C@@H](C)C(=O)N[C@H](C(=O)N1CCC[C@H]1C(=O)O)[C@@H](C)O)[C@@H](C)O)C(C)C` [A97] (H-VVHFFKNIVTPATP-OH): the animals developing disease with EAE [1] was 5/5. The “mean clinical score following injection” value in the series on EAE [1] (FIG. 11) was “increased mean clinical score”.

“PLP 139-151: myelin proteolipid protein peptide 139-151, control peptide (CHCLGKWLGHPDK; UniProt P60202 139-151, looked up, fragment)” gave a Proliferation in series [2] (10 μM peptide) of 0.15 ± 0.03 CPM × 10^-3. In series [2] (50 μM peptide), this molecule showed a Proliferation of 0.26 ± 0.12 CPM × 10^-3. Moreover, in series [3], the IL-2 release amounted to 1646 pg/mL, the IL-4 release worked out at 2197 pg/mL and the γ-IFN release is 3073 pg/mL.

With `CC[C@H](C)[C@H](NC(=O)[C@H](CC(N)=O)NC(=O)[C@H](CCCCN)NC(=O)[C@H](Cc1ccccc1)NC(=O)[C@H](Cc1ccccc1)NC(=O)[C@@H](Cc1c[nH]cn1)NC(=O)[C@@H](NC(=O)[C@@H](N)C(C)C)C(C)C)C(=O)N[C@H](C(=O)N[C@H](C(=O)N1CCC[C@H]1C(=O)N[C@@H](CCCNC(=N)N)C(=O)N[C@H](C(=O)N1CCC[C@H]1C(=O)O)[C@@H](C)O)[C@@H](C)O)C(C)C` [h88] (H-VV[dH]FFKNIVTPRTP-OH), in the series with EAE [4], the “induction of EAE” value is reported as “does not induce EAE in rats”.

As for `CC[C@H](C)[C@H](NC(=O)[C@@H]1CCCN1C(=O)[C@@H](NC(=O)[C@@H](N)Cc1ccccc1)C(C)C)C(=O)N[C@@H](Cc1ccccc1)C(=O)N[C@H](C(=O)N[C@@H](Cc1ccc(O)cc1)C(=O)NCC(=O)N[C@@H](CCC(=O)O)C(=O)N[C@@H](CC(C)C)C(=O)N[C@@H](CCC(N)=O)C(=O)N[C@@H](CCCNC(=N)N)C(=O)N[C@@H](CCSC)C(=O)N[C@@H](CCC(N)=O)C(=O)N[C@@H](CCC(=O)O)C(=O)N[C@@H](CCCCN)C(=O)N[C@@H](CCC(=O)O)C(=O)N[C@@H](CCCNC(=N)N)C(=O)N[C@@H](CC(N)=O)C(=O)N[C@@H](CCCCN)C(=O)NCC(=O)N[C@@H](CCC(N)=O)C(=O)O)[C@@H](C)O` [motlin], the “proliferative response of lymph node cells” value in series [5] is given as “not”.

B1: IFN-γ: cytokine administered in a pilot study in MS (protein, UniProt P01579 24-161, looked up)
Interferon gamma: QDPYVKEAENLKKYFNAGHSDVADNGTLFLGILKNWKEESDRKIMQSQIVSFYFKLFKNFKDDQSIQKSVETIKEDMNVKFFNSNKKKRDDFEKLTNYSVTDLNVQRKAIHELIQVMAELSPAAKTGKRKRSQMLFRG
With B1, the “patients with a clinical exacerbation” value in the series with multiple sclerosis is on record as 7 of 18.
